From PubChem BioAssay (NCI)
Several values for one entry are separate records, joined by “and”; a condition that tells them apart may be missing. Identical values can stand only once.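 A five-concentration, 48-hour dose response in 96-well plates underlies each endpoint, interpolated linearly between surrounding concentrations. The concentration for 50% growth inhibition is given as GI50. TGI marks complete inhibition of growth.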

Columns and labels:
Test in all cases: inhibition of tumour cell growth, NCI panel, 48 h
DLD-1 colon = system: DLD-1 colon
EKVX NSCLC = system: EKVX NSCLC
IGROV1 ovarian = system: IGROV1 ovarian
M19-MEL melanoma = system: M19-MEL melanoma
MALME-3M melanoma = system: MALME-3M melanoma
NCI-H460 lung = system: NCI-H460 lung
SF-295 CNS = system: SF-295 CNS
SF-539 CNS = system: SF-539 CNS
SK-MEL-28 melanoma = system: SK-MEL-28 melanoma
MDA-MB-435 = system: MDA-MB-435

Row | SMILES | GI50 (DLD-1 colon) | TGI (DLD-1 colon) | GI50 (EKVX NSCLC) | TGI (EKVX NSCLC) | GI50 (IGROV1 ovarian) | TGI (IGROV1 ovarian) | GI50 (M19-MEL melanoma) | TGI (M19-MEL melanoma) | GI50 (MALME-3M melanoma) | TGI (MALME-3M melanoma) | GI50 (NCI-H460 lung) | TGI (NCI-H460 lung) | GI50 (SF-295 CNS) | TGI (SF-295 CNS) | GI50 (SF-539 CNS) | TGI (SF-539 CNS) | GI50 (SK-MEL-28 melanoma) | TGI (SK-MEL-28 melanoma) | TGI (MDA-MB-435)
1 | CC(=O)[CH-]C(=O)Nc1ccccc1.CC(=O)[CH-]C(=O)Nc1ccccc1.CC[O-].CC[O-].[Ti+4] | > 100 µM | > 100 µM | > 100 µM | > 100 µM | > 100 µM | > 100 µM | > 100 µM | > 100 µM | > 100 µM | > 100 µM | > 100 µM | > 100 µM | > 100 µM | > 100 µM | > 100 µM | > 100 µM | > 100 µM | > 100 µM | 
2 | Cn1nnc2c(C(N)=O)ncn2c1=O |  | > 100 µM |  | > 100 µM |  | > 100 µM |  | > 100 µM |  | > 100 µM |  | > 100 µM |  | > 100 µM |  | > 100 µM |  | > 100 µM | > 100 µM
3 | CN1CCc2c1nc(-c1cccnc1)c1c2N(C)CC1 |  | > 100 µM |  | > 100 µM |  | > 100 µM |  | > 100 µM |  | > 100 µM |  | > 100 µM |  | > 100 µM |  | > 100 µM |  |  | 
4 | COC(=O)C#CCC1CCCC1C1SCCS1 (stereo unspecified) |  | > 100 µM |  | > 100 µM |  | > 100 µM |  | > 100 µM |  | > 100 µM |  |  |  | > 100 µM |  | > 100 µM |  | > 100 µM | 
5 | O=C(N/C(=C\c1cc(Cl)ccc1Cl)c1nc2ccc(Cl)cc2[nH]1)c1ccccc1 |  | 26.7 µM |  | 50.6 µM |  | 29.8 µM |  | 30 µM |  | 35.8 µM |  | 30.5 µM |  | 31.3 µM |  | 35.1 µM |  | 32.4 µM | 
6 | COc1cccc2c1[C@H]1CO[C@H]3C4C[C@H](C(=O)O)C([C@@H](C2)N13)N4C (stereo partly specified) | 0.452 µM | 7.81 µM and 17.4 µM | 1.87 µM | 5.94 µM and 6.16 µM | 0.551 µM | 9.94 µM and 1.59 µM | 0.611 µM | 9.62 µM and 1.32 µM | 0.696 µM | 4.8 µM and 1.6 µM | 1.36 µM | > 38.2 µM |  | > 41.8 µM | 0.684 µM | 2.62 µM and 2.04 µM | 0.621 µM | 4.91 µM and 1.65 µM | 0.204 µM
7 | O=C(COc1ccc(Cl)cc1)N1CCN(C(=O)COc2ccc(Cl)cc2)c2ccccc21 |  | > 100 µM |  | > 100 µM |  | > 100 µM |  | > 100 µM |  | > 100 µM |  | > 100 µM |  | > 100 µM |  | > 100 µM |  | > 100 µM | 
8 | COc1ccc(-c2onc(-c3c(C)cc(C)cc3C)c2C2=NCCN2)cc1 |  | > 100 µM |  | > 100 µM |  | > 100 µM |  | > 100 µM |  | 74.1 µM |  | > 100 µM |  | 35.3 µM |  | 44.1 µM |  | 48.2 µM | 
9 | CC(=O)NNc1nc(C)c(C(=O)/C=C/c2ccc(/C=C/C(=O)c3sc(NNC(C)=O)nc3C)cc2)s1 |  | > 100 µM |  | > 100 µM |  | > 100 µM |  | > 100 µM |  | > 100 µM |  | > 100 µM |  | > 100 µM |  | > 100 µM |  | > 100 µM | 
10 | C#C[C@H]1CCCCCC1O (stereo partly specified) |  | > 100 µM |  | > 100 µM |  | > 100 µM |  | > 100 µM |  | > 100 µM |  | > 100 µM |  | > 100 µM |  | > 100 µM |  | > 100 µM | 
11 | Cc1nc2c(sc(=S)n2-c2ccccc2)c2nc3ccccc3n12 |  | > 100 µM |  | > 100 µM |  | > 100 µM |  | > 100 µM |  | > 100 µM |  |  |  | > 100 µM |  | > 100 µM |  | > 100 µM | 
12 | O=[N+]([O-])c1ccc2c(Nc3ccccc3-c3ccccc3Nc3c4ccccc4nc4cc([N+](=O)[O-])ccc34)c3ccccc3nc2c1 |  | > 48.4 µM |  | 43 µM |  | 36.1 µM |  | 19.8 µM |  | 50.2 µM |  | 15.3 µM |  | 60.5 µM |  | 39.5 µM |  | 59.1 µM | 3.8 µM
13 | CCCCCCCCCCCCCP(=O)(NCC(N)=O)OCC (stereo unspecified) |  | 32.7 µM |  | 41 µM |  | 39.4 µM |  | 35.2 µM |  | 32.6 µM |  | 39.8 µM |  | 31.2 µM |  | 31.3 µM |  | 32.3 µM | 
14 | CCC[CH2][Sn]([CH2]CCC)([O]C(=O)/C=C/c1ccccc1F)[O]C(=O)/C=C/c1ccccc1F | 0.393 µM | 1.5 µM | 1.43 µM | 2.79 µM | 0.585 µM | 1.66 µM | 0.891 µM | 2.78 µM | 0.385 µM | 1.6 µM | 1.64 µM | 3.37 µM | 1.43 µM | 2.78 µM | 1.27 µM | 2.56 µM | 0.328 µM | 1.29 µM | 
15 | COC(=O)/C(C#N)=C1\CCc2ccccc21 |  | > 100 µM |  | > 100 µM |  | > 100 µM |  | > 100 µM |  | > 100 µM |  | > 100 µM |  | > 100 µM |  | > 100 µM |  | > 100 µM | 
16 | O=C(O)COc1ccc(C(=O)/C(SS/C(C(=O)c2ccc(OCC(=O)O)c(Cl)c2Cl)=C2\C=C(c3ccc(Br)cc3)SS2)=C2/C=C(c3ccc(Br)cc3)SS2)c(Cl)c1Cl |  | > 63.2 µM |  | > 100 µM |  | 23.1 µM |  | > 100 µM |  | 41.9 µM |  | > 71.8 µM |  | 43.3 µM |  | 26.2 µM |  | > 100 µM | > 100 µM
17 | O=C(O)[C@@H](NS(=O)(=O)c1ccc2ccccc2c1)c1ccccc1 |  | > 100 µM |  |  |  | > 100 µM |  | > 100 µM |  | > 100 µM |  | > 100 µM |  |  |  | > 100 µM |  | > 100 µM | 
18 | CCC1C(=O)OCc2c1cc1n(c2=O)C(CC)c2c-1nc1ccccc1c2Cl (stereo unspecified) |  | > 100 µM |  | 80.4 µM |  | > 100 µM |  | > 100 µM |  | > 100 µM |  | 55.4 µM |  | 66 µM |  | 41.1 µM |  | > 100 µM | 
19 | Nc1ncnc2c1nnn2C1C=C(CO)C(O)C1O (stereo unspecified) |  | > 92.6 µM |  | > 100 µM |  | > 100 µM |  | > 100 µM |  | > 100 µM |  | > 100 µM |  | > 100 µM |  | > 100 µM |  | > 100 µM | 
